Legend:
[1] = target: Protein farnesyltransferase (Homo sapiens, UniProt P49354+P49356); assay: Inhibition of Farnesyltransferase catalyzed transfer of the FPP moiety to dansyl-GCVLS; type: protein-complex assay
[2] = target: Geranylgeranyl transferase type I (Homo sapiens, UniProt P49354+P53609); assay: Inhibition of Geranylgeranyl transferase type I (GGPT I) catalyzed transfer of GGPP to dansyl-GCVLL; type: protein-complex assay

CSCCC(NC(=O)[C@H](Cc1ccccc1)NCC[C@@H](C)CNC[C@H](N)CSC)C(=O)O (stereo partly specified) gave an IC50 [1] of 0.034 µM and an IC50 [2] of 5.1 µM.

COC(=O)[C@H](CCSC)N(C(=O)c1ccccc1)C1CCN(C(=O)c2cscn2)CC1 was tested, and the IC50 [1] was 52.5 µM and the IC50 [2] was > 100 µM.

For COC(=O)[C@H](CCSC)N(C(=O)c1ccccc1)C1CCN(Cc2cscn2)CC1, the IC50 [1] was 41.7 µM and the IC50 [2] was > 100 µM.

COC(=O)[C@H](CCSC)N(C(=O)c1ccccc1)C1CCN(C(=O)C(N)CS)CC1 (stereo partly specified) was tested, and the IC50 [1] was 0.02 µM and the IC50 [2] was > 100 µM.

COC(=O)[C@H](CCSC)N(C(=O)c1ccccc1)C1CCN(C(=O)[C@@H]2CSCN2)CC1 was tested, and the IC50 [1] was 2.14 µM and the IC50 [2] was > 100 µM.

With CSCC[C@H](NC(=O)c1ccc(NC(=O)[C@@H](N)CS)cc1)C(=O)O the IC50 [1] was 0.072 µM and the IC50 [2] was > 100 µM.

For COC(=O)[C@H](CCSC)N(C(=O)c1ccccc1)C1CCNCC1, the IC50 [1] was > 100 µM.

COC(=O)[C@H](CCSC)N(C(=O)c1ccccc1)C1CCN(C(=O)[C@H]2CSCN2)CC1 was tested, and the IC50 [1] was > 100 µM.

In the case of COC(=O)[C@H](CCSC)N(C(=O)c1ccccc1)C1CCN(Cc2c[nH]cn2)CC1, the IC50 [1] is reported as 16.2 µM and the IC50 [2] is reported as > 100 µM.
